Source: patent US20220133688A1, “MACROCYCLIC LACTONE ANTHELMINTICS AGAINST NEMATODES” (Bayer Animal Health GmbH, priority 2019, published 2022)
“And” between values parts separate entries of the source, which are not always exact repeats. Equal entries are not always repeated. Where two headings read alike, the source gives them in different places.

Key:
[1] = system: D. immitis Mf, Missouri isolate; experiment: Cell attachment assay (canine PMN or PBMC attachment to Mf), Missouri isolate; assay type: cell-based, Dirofilaria immitis
[2] = system: D. immitis Mf, Georgia-2 isolate; experiment: Cell attachment assay (canine PMN or PBMC attachment to Mf), Georgia-2 isolate; assay type: cell-based, Dirofilaria immitis

SMILES	Percentage (±SEM) of Mf with cells attached [1]	lowest drug concentration at which a statistically significant increase (p = <0.05) in cell attachment was observed compared to the no-drug control [1] [nM]	Percentage (±SEM) of Mf with cells attached [2]	lowest drug concentration at which a statistically significant increase (p = <0.05) in cell attachment was observed compared to the no-drug control [2] [nM]	Percentage (±SEM) of Mf with cells attached ([1]; PBMC, 1 μM drug, Missouri Mf) [%]	lowest drug concentration at which a statistically significant increase (p = <0.05) in cell attachment was observed compared to the no-drug control ([1]; PBMC, 40 h, Missouri Mf, 2-way ANOVA) [nM]	Percentage (±SEM) of Mf with cells attached ([1]; PMN, 1 μM drug, Missouri Mf) [%]	lowest drug concentration at which a statistically significant increase (p = <0.05) in cell attachment was observed compared to the no-drug control ([1]; PMN, 24 h, Missouri Mf, 2-way ANOVA) [nM]	Percentage (±SEM) of Mf with cells attached ([2]; PBMC, 1 μM drug, Georgia-2 Mf) [%]	lowest drug concentration at which a statistically significant increase (p = <0.05) in cell attachment was observed compared to the no-drug control ([2]; PBMC, 40 h, Georgia-2 Mf, 2-way ANOVA) [nM]	Percentage (±SEM) of Mf with cells attached ([2]; PMN, 1 μM drug, Georgia-2 Mf) [%]	lowest drug concentration at which a statistically significant increase (p = <0.05) in cell attachment was observed compared to the no-drug control ([2]; PMN, 24 h, Georgia-2 Mf, 2-way ANOVA) [nM]
CC[C@H](C)[C@H]1O[C@]2(CC[C@@H]1C)C[C@@H]1C[C@@H](C/C=C(\C)[C@@H](O[C@H]3C[C@H](OC)[C@@H](O[C@H]4C[C@H](OC)[C@@H](O)[C@H](C)O4)[C@H](C)O3)[C@@H](C)/C=C/C=C3\CO[C@@H]4[C@H](O)C(C)=C[C@@H](C(=O)O1)[C@]34O)O2 [IVM, ivermectin]	48 ± 6% and 60 ± 3%	3	41 ± 6% and 71 ± 5%	1	–	–	–	–	–	–	–	–
CO/N=C1\C[C@]2(C[C@@H]3C[C@@H](C/C=C(\C)C[C@@H](C)/C=C/C=C4\CO[C@@H]5[C@H](O)C(C)=C[C@@H](C(=O)O3)[C@]45O)O2)O[C@H](/C(C)=C/C(C)C)[C@H]1C [MOX, moxidectin]	–	–	–	–	63 ± 5	1	65 ± 5	3	63 ± 5	1	54 ± 6	3
